# Data from patent US10213433B2 (AbbVie Inc., priority 2010, dated 2019).
# Biological target: Bcl-2 protein (Homo sapiens (Human), UniProt P10415)
# Assay: Bcl-2 binding TR-FRET (Time-Resolved Fluorescence-Resonance-Energy-Transfer) assay
# Details: inhibition constant for binding to Bcl-2 protein
# Excerpt: The smaller the Ki value, the greater is the binding affinity.
# Sequence of Bcl-2 protein (P10415 whole entry): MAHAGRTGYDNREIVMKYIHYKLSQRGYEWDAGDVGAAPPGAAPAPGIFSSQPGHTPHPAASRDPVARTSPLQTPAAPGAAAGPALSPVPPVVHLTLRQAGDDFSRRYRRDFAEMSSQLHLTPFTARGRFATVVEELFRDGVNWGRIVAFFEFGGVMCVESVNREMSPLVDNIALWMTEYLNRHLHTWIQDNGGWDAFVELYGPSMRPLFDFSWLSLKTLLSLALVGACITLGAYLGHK
row,SMILES,Ki
1,"O=C(NS(=O)(=O)c1ccc(NCCCN2CCOCC2)c([N+](=O)[O-])c1)c1ccc(N2CCN(Cc3ccccc3-c3ccc(Cl)cc3)CC2)cc1Oc1cnc2[nH]ccc2c1 [Compound 2, 4-{4-[(4′-chloro-1,1′-biphenyl-2-yl)methyl]piperazin-1-yl}-N-({4-[(3-morpholin-4-ylpropyl)amino]-3-nitrophenyl}sulfonyl)-2-(1H-pyrrolo[2,3-b]pyridin-5-yloxy)benzamide]",< 0.01 nM
2,"CN1CCC(Nc2ccc(S(=O)(=O)NC(=O)c3ccc(N4CCN(CC5=C(c6ccc(Cl)cc6)CC(C)(C)CC5)CC4)cc3Oc3cnc4[nH]ccc4c3)cc2[N+](=O)[O-])CC1 [Compound 4, 4-(4-{[2-(4-chlorophenyl)-4,4-dimethylcyclohex-1-en-1-yl]methyl}piperazin-1-yl)-N-({4-[(1-methylpiperidin-4-yl)amino]-3-nitrophenyl}sulfonyl)-2-(1H-pyrrolo[2,3-b]pyridin-5-yloxy)benzamide]",< 0.01 nM
3,"COCCNc1ccc(S(=O)(=O)NC(=O)c2ccc(N3CCN(CC4=C(c5ccc(Cl)cc5)CC(C)(C)CC4)CC3)cc2Oc2cnc3[nH]ccc3c2)cc1[N+](=O)[O-] [Compound 10, 4-(4-{[2-(4-chlorophenyl)-4,4-dimethylcyclohex-1-en-1-yl]methyl}piperazin-1-yl)-N-({4-[(2-methoxyethyl)amino]-3-nitrophenyl}sulfonyl)-2-(1H-pyrrolo[2,3-b]pyridin-5-yloxy)benzamide]",< 0.01 nM
4,"CC1(C)CCC(CN2CCN(c3ccc(C(=O)NS(=O)(=O)c4ccc(NC[C@H]5CCCOC5)c([N+](=O)[O-])c4)c(Oc4cnc5[nH]ccc5c4)c3)CC2)=C(c2ccc(Cl)cc2)C1 [Compound 13, 4-(4-{[2-(4-chlorophenyl)-4,4-dimethylcyclohex-1-en-1-yl]methyl}piperazin-1-yl)-N-[(3-nitro-4-{[(3R)-tetrahydro-2H-pyran-3-ylmethyl]amino}phenyl)sulfonyl]-2-(1H-pyrrolo[2,3-b]pyridin-5-yloxy)benzamide]",< 0.01 nM
5,"CC1(C)CC(c2ccc(Cl)cc2)=C(CN2CCN(c3ccc(C(=O)NS(=O)(=O)c4ccc(NCC5CCOCC5)c([N+](=O)[O-])c4)c(Oc4cnc5[nH]ccc5c4)c3)CC2)CO1 [Compound 15, 4-(4-{[4-(4-chlorophenyl)-6,6-dimethyl-5,6-dihydro-2H-pyran-3-yl]methyl}piperazin-1-yl)-N-({3-nitro-4-[(tetrahydro-2H-pyran-4-ylmethyl)amino]phenyl}sulfonyl)-2-(1H-pyrrolo[2,3-b]pyridin-5-yloxy)benzamide]",< 0.01 nM
6,"CC1(C)CCC(CN2CCN(c3ccc(C(=O)NS(=O)(=O)c4ccc(NCC5COCCO5)c([N+](=O)[O-])c4)c(Oc4cnc5[nH]ccc5c4)c3)CC2)=C(c2ccc(Cl)cc2)C1 (centres unmarked) [Compound 25, 4-(4-{[2-(4-chlorophenyl)-4,4-dimethylcyclohex-1-en-1-yl]methyl}piperazin-1-yl)-N-({4-[(1,4-dioxan-2-ylmethyl)amino]-3-nitrophenyl}sulfonyl)-2-(1H-pyrrolo[2,3-b]pyridin-5-yloxy)benzamide]",< 0.01 nM
7,"CC1(C)CCC(CN2CCN(c3ccc(C(=O)NS(=O)(=O)c4ccc(OC[C@@H]5COCCO5)c([N+](=O)[O-])c4)c(Oc4cnc5[nH]ccc5c4)c3)CC2)=C(c2ccc(Cl)cc2)C1 [Compound 28, 4-(4-{[2-(4-chlorophenyl)-4,4-dimethylcyclohex-1-en-1-yl]methyl}piperazin-1-yl)-N-({4-[(2S)-1,4-dioxan-2-ylmethoxy]-3-nitrophenyl}sulfonyl)-2-(1H-pyrrolo[2,3-b]pyridin-5-yloxy)benzamide]",< 0.01 nM
8,"CC1(C)CCC(CN2CCN(c3ccc(C(=O)NS(=O)(=O)c4ccc(OC[C@H]5COCCO5)c([N+](=O)[O-])c4)c(Oc4cnc5[nH]ccc5c4)c3)CC2)=C(c2ccc(Cl)cc2)C1 [Compound 30, 4-(4-{[2-(4-chlorophenyl)-4,4-dimethylcyclohex-1-en-1-yl]methyl}piperazin-1-yl)-N-({4-[(2R)-1,4-dioxan-2-ylmethoxy]-3-nitrophenyl}sulfonyl)-2-(1H-pyrrolo[2,3-b]pyridin-5-yloxy)benzamide]",< 0.01 nM
9,"CC1(C)CC(c2ccc(Cl)cc2)=C(CN2CCN(c3ccc(C(=O)NS(=O)(=O)c4ccc(NCC5COCCO5)c([N+](=O)[O-])c4)c(Oc4cnc5[nH]ccc5c4)c3)CC2)CO1 (centres unmarked) [Compound 31, 4-(4-{[4-(4-chlorophenyl)-6,6-dimethyl-5,6-dihydro-2H-pyran-3-yl]methyl}piperazin-1-yl)-N-({4-[(1,4-dioxan-2-ylmethyl)amino]-3-nitrophenyl}sulfonyl)-2-(1H-pyrrolo[2,3-b]pyridin-5-yloxy)benzamide]",< 0.01 nM
10,"CC1(C)CC(c2ccc(Cl)cc2)=C(CN2CCN(c3ccc(C(=O)NS(=O)(=O)c4ccc(OCC5COCCO5)c([N+](=O)[O-])c4)c(Oc4cnc5[nH]ccc5c4)c3)CC2)CO1 (centres unmarked) [Compound 32, 4-(4-{[4-(4-chlorophenyl)-6,6-dimethyl-5,6-dihydro-2H-pyran-3-yl]methyl}piperazin-1-yl)-N-{[4-(1,4-dioxan-2-ylmethoxy)-3-nitrophenyl]sulfonyl}-2-(1H-pyrrolo[2,3-b]pyridin-5-yloxy)benzamide]",< 0.01 nM
11,"CC1(C)CC(c2ccc(Cl)cc2)=C(CN2CCN(c3ccc(C(=O)NS(=O)(=O)c4cnc(OCC5CCOCC5)c(C#N)c4)c(Oc4cnc5[nH]ccc5c4)c3)CC2)CO1 [Compound 35, 4-(4-{[4-(4-chlorophenyl)-6,6-dimethyl-5,6-dihydro-2H-pyran-3-yl]methyl}piperazin-1-yl)-N-{[5-cyano-6-(tetrahydro-2H-pyran-4-ylmethoxy)pyridin-3-yl]sulfonyl}-2-(1H-pyrrolo[2,3-b]pyridin-5-yloxy)benzamide]",< 0.01 nM
12,"CC1(C)CCC(CN2CCN(c3ccc(C(=O)NS(=O)(=O)c4cnc(OCC5CCOCC5)c(Cl)c4)c(Oc4cnc5[nH]ccc5c4)c3)CC2)=C(c2ccc(Cl)cc2)C1 [Compound 40, 4-(4-{[2-(4-chlorophenyl)-4,4-dimethylcyclohex-1-en-1-yl]methyl}piperazin-1-yl)-N-{[5-chloro-6-(tetrahydro-2H-pyran-4-ylmethoxy)pyridin-3-yl]sulfonyl}-2-(1H-pyrrolo[2,3-b]pyridin-5-yloxy)benzamide]",< 0.01 nM
13,"CC1(C)CC(c2ccc(Cl)cc2)=C(CN2CCN(c3ccc(C(=O)NS(=O)(=O)c4cnc(OCC5CCOCC5)c(Cl)c4)c(Oc4cnc5[nH]ccc5c4)c3)CC2)CO1 [Compound 41, 4-(4-{[4-(4-chlorophenyl)-6,6-dimethyl-5,6-dihydro-2H-pyran-3-yl]methyl}piperazin-1-yl)-N-{[5-chloro-6-(tetrahydro-2H-pyran-4-ylmethoxy)pyridin-3-yl]sulfonyl}-2-(1H-pyrrolo[2,3-b]pyridin-5-yloxy)benzamide]",< 0.01 nM
14,"CN1CCC(Nc2ccc(S(=O)(=O)NC(=O)c3ccc(N4CCN(CC5=C(c6ccc(Cl)cc6)CC(C)(C)OC5)CC4)cc3Oc3cnc4[nH]ccc4c3)cc2S(=O)(=O)C(F)(F)F)CC1 [Compound 45, 4-(4-{[4-(4-chlorophenyl)-6,6-dimethyl-5,6-dihydro-2H-pyran-3-yl]methyl}piperazin-1-yl)-N-({4-[(1-methylpiperidin-4-yl)amino]-3-[(trifluoromethyl)sulfonyl]phenyl}sulfonyl)-2-(1H-pyrrolo[2,3-b]pyridin-5-yloxy)benzamide]",< 0.01 nM
15,"CN1CCC(COc2ncc(S(=O)(=O)NC(=O)c3ccc(N4CCN(CC5=C(c6ccc(Cl)cc6)CC(C)(C)CC5)CC4)cc3Oc3cnc4[nH]ccc4c3)cc2Br)CC1 [Compound 47, N-({5-bromo-6-[(1-methylpiperidin-4-yl)methoxy]pyridin-3-yl}sulfonyl)-4-(4-{[2-(4-chlorophenyl)-4,4-dimethylcyclohex-1-en-1-yl]methyl}piperazin-1-yl)-2-(1H-pyrrolo[2,3-b]pyridin-5-yloxy)benzamide]",< 0.01 nM
16,"CN1CCC(COc2ccc(S(=O)(=O)NC(=O)c3ccc(N4CCN(CC5=C(c6ccc(Cl)cc6)CC(C)(C)CC5)CC4)cc3Oc3cnc4[nH]ccc4c3)cc2[N+](=O)[O-])CC1 [Compound 48, 4-(4-{[2-(4-chlorophenyl)-4,4-dimethylcyclohex-1-en-1-yl]methyl}piperazin-1-yl)-N-({4-[(1-methylpiperidin-4-yl)methoxy]-3-nitrophenyl}sulfonyl)-2-(1H-pyrrolo[2,3-b]pyridin-5-yloxy)benzamide]",< 0.01 nM
17,"CC1(C)CCC(CN2CCN(c3ccc(C(=O)NS(=O)(=O)c4ccc(OCC5CCOC(C)(C)C5)c([N+](=O)[O-])c4)c(Oc4cnc5[nH]ccc5c4)c3)CC2)=C(c2ccc(Cl)cc2)C1 (centres unmarked) [Compound 51, 4-(4-{[2-(4-chlorophenyl)-4,4-dimethylcyclohex-1-en-1-yl]methyl}piperazin-1-yl)-N-({4-[(2,2-dimethyltetrahydro-2H-pyran-4-yl)methoxy]-3-nitrophenyl}sulfonyl)-2-(1H-pyrrolo[2,3-b]pyridin-5-yloxy)benzamide]",< 0.01 nM
18,"CC(=O)N1CCC(Nc2ccc(S(=O)(=O)NC(=O)c3ccc(N4CCN(CC5=C(c6ccc(Cl)cc6)CC(C)(C)CC5)CC4)cc3Oc3cnc4[nH]ccc4c3)cc2[N+](=O)[O-])CC1 [Compound 53, N-({4-[(1-acetylpiperidin-4-yl)amino]-3-nitrophenyl}sulfonyl)-4-(4-{[2-(4-chlorophenyl)-4,4-dimethylcyclohex-1-en-1-yl]methyl}piperazin-1-yl)-2-(1H-pyrrolo[2,3-b]pyridin-5-yloxy)benzamide]",< 0.01 nM
19,"CC1(C)CCC(CN2CCN(c3ccc(C(=O)NS(=O)(=O)c4ccc(NCCCN5CCOCC5)c([N+](=O)[O-])c4)c(Oc4cnc5[nH]ccc5c4)c3)CC2)=C(c2ccc(Cl)cc2)C1 [Compound 55, 4-(4-{[2-(4-chlorophenyl)-4,4-dimethylcyclohex-1-en-1-yl]methyl}piperazin-1-yl)-N-({4-[(3-morpholin-4-ylpropyl)amino]-3-nitrophenyl}sulfonyl)-2-(1H-pyrrolo[2,3-b]pyridin-5-yloxy)benzamide]",< 0.01 nM
20,"COCCOCCS(=O)(=O)c1ccc(S(=O)(=O)NC(=O)c2ccc(N3CCN(CC4=C(c5ccc(Cl)cc5)CC(C)(C)CC4)CC3)cc2Oc2cnc3[nH]ccc3c2)cc1Cl [Compound 58, N-[(3-chloro-4-{[2-(2-methoxyethoxyl)ethyl]sulfonyl}phenyl)sulfonyl]-4-(4-{[2-(4-chlorophenyl)-4,4-dimethylcyclohex-1-en-1-yl]methyl}piperazin-1-yl)-2-(1H-pyrrolo[2,3-b]pyridin-5-yloxy)benzamide]",< 0.01 nM
